# Laboratory results as given in PubChem BioAssay AID1918955 (Molecular Pharmacology Branch, DTP, NCI, 2023).
# System: NCI/ADR-RES complex spheroid viability
# Assay: Anticancer human tumor NCI/ADR-RES cell line growth inhibition;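 note: spheroids exposed to compounds for 7 days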;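 for viability, T/C: 100% = DMSO vehicle treated spheroids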
# Details: for IC50: curve of first compound; for viability, T/C: stronger effect = lower value
# Outline: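 Multicellular complex spheroids of tumor cells with human endothelial cells (HUVEC) and mesenchymal stem cells; the LSD1 inhibitor iadademstat was combined with standard-of-care or investigational agents. Top concentration at or near clinical Cmax, half-log dilutions; final DMSO ≤0.25%.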
# [1] = second compound 0.1 µM, first compound 0.000949 µM
# [2] = second compound 0.1 µM, first compound 0.003 µM
# [3] = second compound 0.1 µM, first compound 0.00949 µM
# [4] = second compound 0.1 µM, first compound 0.03 µM
# [5] = second compound 0.1 µM, first compound 0.0949 µM
# [6] = second compound 0.1 µM, first compound 0.3 µM
# [7] = second compound 0.316 µM, first compound 0.000949 µM
# [8] = second compound 0.316 µM, first compound 0.003 µM
# [9] = second compound 0.316 µM, first compound 0.00949 µM
# [10] = second compound 0.316 µM, first compound 0.03 µM
# [11] = second compound 0.316 µM, first compound 0.0949 µM
# [12] = second compound 0.316 µM, first compound 0.3 µM
# [13] = second compound 1 µM, first compound 0.000949 µM
# [14] = second compound 1 µM, first compound 0.003 µM
# [15] = second compound 1 µM, first compound 0.00949 µM
# [16] = second compound 1 µM, first compound 0.03 µM
# [17] = second compound 1 µM, first compound 0.0949 µM
# [18] = second compound 1 µM, first compound 0.3 µM
# [19] = second compound 3.16 µM, first compound 0.000949 µM
# [20] = second compound 3.16 µM, first compound 0.003 µM
# [21] = second compound 3.16 µM, first compound 0.00949 µM
# [22] = second compound 3.16 µM, first compound 0.03 µM
# [23] = second compound 3.16 µM, first compound 0.0949 µM
# [24] = second compound 3.16 µM, first compound 0.3 µM
# [25] = second compound 10 µM, first compound 0.000949 µM
# [26] = second compound 10 µM, first compound 0.003 µM
# [27] = second compound 10 µM, first compound 0.00949 µM
# [28] = second compound 10 µM, first compound 0.03 µM
# [29] = second compound 10 µM, first compound 0.0949 µM
# [30] = second compound 10 µM, first compound 0.3 µM
structure (smiles),measurement,setting,value
CC[C@@]1(O)C(=O)OCc2c1cc1n(c2=O)Cc2cc3c(CN(C)C)c(O)ccc3nc2-1 + NC1CCC(NC2CC2c2ccccc2)CC1,IC50,second compound 0.1 µM,8.31 nM
same,IC50,second compound 0.316 µM,8.18 nM
same,IC50,second compound 1 µM,9.09 nM
same,IC50,second compound 3.16 µM,7.45 nM
same,IC50,second compound 10 µM,5.56 nM
same,"viability, T/C","second compound 0.1 µM, first compound 0.000316 µM",104%
same,"viability, T/C","second compound 0.1 µM, first compound 0.001 µM",97.8%
same,"viability, T/C","second compound 0.1 µM, first compound 0.00316 µM",86.5%
same,"viability, T/C","second compound 0.1 µM, first compound 0.01 µM",43.4%
same,"viability, T/C","second compound 0.1 µM, first compound 0.0316 µM",9.03%
same,"viability, T/C","second compound 0.1 µM, first compound 0.1 µM",3.21%
same,"viability, T/C","second compound 0.316 µM, first compound 0.000316 µM",118%
same,"viability, T/C","second compound 0.316 µM, first compound 0.001 µM",116%
same,"viability, T/C","second compound 0.316 µM, first compound 0.00316 µM",86.7%
same,"viability, T/C","second compound 0.316 µM, first compound 0.01 µM",42.9%
same,"viability, T/C","second compound 0.316 µM, first compound 0.0316 µM",10.8%
same,"viability, T/C","second compound 0.316 µM, first compound 0.1 µM",2.57%
same,"viability, T/C","second compound 1 µM, first compound 0.000316 µM",103%
same,"viability, T/C","second compound 1 µM, first compound 0.001 µM",103%
same,"viability, T/C","second compound 1 µM, first compound 0.00316 µM",92.9%
same,"viability, T/C","second compound 1 µM, first compound 0.01 µM",46.2%
same,"viability, T/C","second compound 1 µM, first compound 0.0316 µM",8.05%
same,"viability, T/C","second compound 1 µM, first compound 0.1 µM",2.63%
same,"viability, T/C","second compound 3.16 µM, first compound 0.000316 µM",108%
same,"viability, T/C","second compound 3.16 µM, first compound 0.001 µM",98.8%
same,"viability, T/C","second compound 3.16 µM, first compound 0.00316 µM",91.3%
same,"viability, T/C","second compound 3.16 µM, first compound 0.01 µM",35.6%
same,"viability, T/C","second compound 3.16 µM, first compound 0.0316 µM",10.1%
same,"viability, T/C","second compound 3.16 µM, first compound 0.1 µM",4.55%
same,"viability, T/C","second compound 10 µM, first compound 0.000316 µM",98.5%
same,"viability, T/C","second compound 10 µM, first compound 0.001 µM",95.3%
same,"viability, T/C","second compound 10 µM, first compound 0.00316 µM",66.8%
same,"viability, T/C","second compound 10 µM, first compound 0.01 µM",32%
same,"viability, T/C","second compound 10 µM, first compound 0.0316 µM",7.06%
same,"viability, T/C","second compound 10 µM, first compound 0.1 µM",2.23%
CCc1c2c(nc3ccc(O)cc13)-c1cc3c(c(=O)n1C2)COC(=O)[C@]3(O)CC + NC1CCC(NC2CC2c2ccccc2)CC1,IC50,second compound 0.1 µM,< 0.949 nM
same,IC50,second compound 0.316 µM,< 0.949 nM
same,IC50,second compound 1 µM,< 0.949 nM
same,IC50,second compound 3.16 µM,< 0.949 nM
same,IC50,second compound 10 µM,< 0.949 nM
same,"viability, T/C",[1],5.27%
same,"viability, T/C",[2],2.59%
same,"viability, T/C",[3],0.6%
same,"viability, T/C",[4],1.16%
same,"viability, T/C",[5],1.11%
same,"viability, T/C",[6],3.88%
same,"viability, T/C",[7],2.94%
same,"viability, T/C",[8],1.44%
same,"viability, T/C",[9],1.36%
same,"viability, T/C",[10],2.53%
same,"viability, T/C",[11],0.44%
same,"viability, T/C",[12],0.37%
same,"viability, T/C",[13],6.45%
same,"viability, T/C",[14],1.09%
same,"viability, T/C",[15],1.09%
same,"viability, T/C",[16],1.03%
same,"viability, T/C",[17],0.47%
same,"viability, T/C",[18],0.58%
same,"viability, T/C",[19],2.6%
same,"viability, T/C",[20],1.07%
same,"viability, T/C",[21],0.88%
same,"viability, T/C",[22],0.53%
same,"viability, T/C",[23],1.24%
same,"viability, T/C",[24],2.59%
same,"viability, T/C",[25],4.02%
same,"viability, T/C",[26],1.26%
same,"viability, T/C",[27],0.71%
same,"viability, T/C",[28],0.53%
same,"viability, T/C",[29],0.22%
same,"viability, T/C",[30],4.32%
COc1cc(C2c3cc4c(cc3C(OC3OC5COC(C)OC5C(O)C3O)C3COC(=O)C23)OCO4)cc(OC)c1O (stereo not given) + NC1CCC(NC2CC2c2ccccc2)CC1,IC50,second compound 0.1 µM,> 3000 nM
same,IC50,second compound 0.316 µM,> 3000 nM
same,IC50,second compound 1 µM,> 3000 nM
same,IC50,second compound 3.16 µM,> 3000 nM
same,IC50,second compound 10 µM,> 3000 nM
same,"viability, T/C",[3],92.9%
same,"viability, T/C",[4],103%
same,"viability, T/C",[5],99.4%
same,"viability, T/C",[6],100%
same,"viability, T/C","second compound 0.1 µM, first compound 0.949 µM",98.3%
same,"viability, T/C","second compound 0.1 µM, first compound 3 µM",91.1%
same,"viability, T/C",[9],101%
same,"viability, T/C",[10],101%
same,"viability, T/C",[11],103%
same,"viability, T/C",[12],100%
same,"viability, T/C","second compound 0.316 µM, first compound 0.949 µM",95.6%
same,"viability, T/C","second compound 0.316 µM, first compound 3 µM",94.4%
same,"viability, T/C",[15],98.8%
same,"viability, T/C",[16],96.5%
same,"viability, T/C",[17],95.8%
same,"viability, T/C",[18],96.6%
same,"viability, T/C","second compound 1 µM, first compound 0.949 µM",94.7%
same,"viability, T/C","second compound 1 µM, first compound 3 µM",91.3%
same,"viability, T/C",[21],96.9%
same,"viability, T/C",[22],91.8%
same,"viability, T/C",[23],99.2%
same,"viability, T/C",[24],97.3%
same,"viability, T/C","second compound 3.16 µM, first compound 0.949 µM",94.5%
same,"viability, T/C","second compound 3.16 µM, first compound 3 µM",86.1%
same,"viability, T/C",[27],93%
same,"viability, T/C",[28],92%
same,"viability, T/C",[29],86.3%
same,"viability, T/C",[30],90.3%
same,"viability, T/C","second compound 10 µM, first compound 0.949 µM",81.6%
same,"viability, T/C","second compound 10 µM, first compound 3 µM",82%
Nc1ccn(C2OC(CO)C(O)C2(F)F)c(=O)n1 (stereo not given) + NC1CCC(NC2CC2c2ccccc2)CC1,IC50,second compound 0.1 µM,< 0.949 nM
same,IC50,second compound 0.316 µM,< 0.949 nM
same,IC50,second compound 1 µM,< 0.949 nM
same,IC50,second compound 3.16 µM,< 0.949 nM
same,IC50,second compound 10 µM,< 0.949 nM
same,"viability, T/C",[1],2.74%
same,"viability, T/C",[2],4.03%
same,"viability, T/C",[3],2.54%
same,"viability, T/C",[4],2.78%
same,"viability, T/C",[5],2.85%
same,"viability, T/C",[6],3.22%
same,"viability, T/C",[7],4.09%
same,"viability, T/C",[8],4.64%
same,"viability, T/C",[9],2.74%
same,"viability, T/C",[10],3.17%
same,"viability, T/C",[11],1.83%
same,"viability, T/C",[12],5.17%
same,"viability, T/C",[13],3.13%
same,"viability, T/C",[14],3.5%
same,"viability, T/C",[15],3.1%
same,"viability, T/C",[16],2.71%
same,"viability, T/C",[17],2.01%
same,"viability, T/C",[18],1.76%
same,"viability, T/C",[19],2.3%
same,"viability, T/C",[20],3.42%
same,"viability, T/C",[21],2.96%
same,"viability, T/C",[22],1.75%
same,"viability, T/C",[23],0.86%
same,"viability, T/C",[24],2.49%
same,"viability, T/C",[25],1.69%
same,"viability, T/C",[26],2.17%
same,"viability, T/C",[27],2.05%
same,"viability, T/C",[28],2.1%
same,"viability, T/C",[29],5.19%
same,"viability, T/C",[30],0.69%
